Data reported in BindingDB's records for doi:10.1021/jm0611051 (Gsk, 2007).
pIC50: −log10 of the molar value.

Target: Angiopoietin-1 receptor (Homo sapiens, UniProt Q02763)
Assay: Homogeneous Time-Resolved Fluorescence (HTRF) Enzyme Assay
Procedure: The assay uses purified GST-Tie-2 or GST-VEGFR2 interacting with biotinylated peptide substrates. HTRF is based on the proximity of europium cryptate (donor fluorophore)-labeled antiphosphotyrosine and streptavidin labeled with APC (allophycocyanin), which have been brought together by a binding reaction. […] The IC50 values for inhibitors were determined by a four-parameter sigmoidal curve fit.

Angiopoietin-1 receptor, sequence (Q02763 whole entry): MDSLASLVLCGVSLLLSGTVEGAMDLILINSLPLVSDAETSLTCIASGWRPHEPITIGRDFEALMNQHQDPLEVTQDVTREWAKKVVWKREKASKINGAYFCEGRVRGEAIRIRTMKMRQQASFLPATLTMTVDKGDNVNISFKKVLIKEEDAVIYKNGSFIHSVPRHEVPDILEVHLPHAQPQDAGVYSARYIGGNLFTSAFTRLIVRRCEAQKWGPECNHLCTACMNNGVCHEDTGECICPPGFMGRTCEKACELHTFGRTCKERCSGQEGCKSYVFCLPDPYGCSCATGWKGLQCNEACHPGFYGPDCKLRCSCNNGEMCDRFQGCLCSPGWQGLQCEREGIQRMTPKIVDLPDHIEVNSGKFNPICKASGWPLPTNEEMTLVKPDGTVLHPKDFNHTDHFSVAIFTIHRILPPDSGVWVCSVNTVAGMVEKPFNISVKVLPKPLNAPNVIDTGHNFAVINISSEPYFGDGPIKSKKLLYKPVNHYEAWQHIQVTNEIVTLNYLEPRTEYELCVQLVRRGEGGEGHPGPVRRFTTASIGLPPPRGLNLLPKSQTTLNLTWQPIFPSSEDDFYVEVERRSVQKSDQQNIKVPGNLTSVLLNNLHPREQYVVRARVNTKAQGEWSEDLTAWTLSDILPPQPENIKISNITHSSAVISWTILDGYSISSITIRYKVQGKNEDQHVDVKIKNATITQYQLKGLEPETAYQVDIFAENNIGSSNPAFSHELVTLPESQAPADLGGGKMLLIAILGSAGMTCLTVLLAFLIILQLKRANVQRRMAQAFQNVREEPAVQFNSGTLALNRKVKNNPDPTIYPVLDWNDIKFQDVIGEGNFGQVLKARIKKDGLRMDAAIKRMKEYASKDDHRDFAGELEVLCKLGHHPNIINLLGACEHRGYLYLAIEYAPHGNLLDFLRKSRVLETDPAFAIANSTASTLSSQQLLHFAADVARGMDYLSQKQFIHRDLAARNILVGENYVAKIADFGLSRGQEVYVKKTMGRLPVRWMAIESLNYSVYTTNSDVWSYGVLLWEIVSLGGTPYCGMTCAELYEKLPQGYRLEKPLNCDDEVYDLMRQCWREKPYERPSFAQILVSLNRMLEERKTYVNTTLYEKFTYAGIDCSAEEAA

## O=C(Nc1ccc(Oc2ccc3nc(NC(=O)c4ccccc4-n4cccc4)[nH]c3c2)cc1)Nc1cc(C(F)(F)F)ccc1F [N-(6-(4-((2-Fluoro-5(trifluoromethyl)phenyl)aminocarbonylamino)phenoxy)-1H-benzimidazol-2-yl)-2-(1H-pyrrol-1-yl)benzamide]
  pIC50: 5.89
